Results published in PMC8398472, “Anticancer Diiron Vinyliminium Complexes: A Structure–Activity Relationship Study” (Pharmaceutics, 2021).
Values joined by “and” are separate entries in the source; they are usually repeats but may differ in a detail not shown here. Identical values can stand only once.

Tests used:
[1] = test system: mouse embryo fibroblasts Balb/3T3 clone A31; assay: Cytotoxicity, WST-1 cell viability assay, Balb/3T3 clone A31; type: cell-based; settings: 72 h exposure
Experimental: In vitro cytotoxicity investigations were carried out by using human ovarian carcinoma cisplatin-sensitive A2780 (ECACC93112519), human ovarian carcinoma cisplatin-resistant A2780cisR (ECACC 93112517) and mouse embryo fibroblasts Balb/3T3 clone A31 (ATCC CCL-163) cell lines. A2780 and A2780cisR were purchased from the European Collection of Authenticated Cell Cultures (ECACC), and Balb/3T3 clone A31 cell line from the American Type Culture Collection (ATCC).
A2780 and A2780cisR cells were routinely cultured in RPMI 1640 (Merck) containing 2 mM of L-glutamine (Merck), 1% of penicillin/streptomycin solution (Merck—10 000 U mL^−1: 10 mg mL^−1), 10% of fetal bovine serum (Merck—FBS) and antimycotic (InvivoGen, USA), and Balb/3T3 clone A31 in Dulbecco’s modified Eagle medium (Merck—DMEM) supplemented with 4 mM of L-glutamine, 1% of penicillin/streptomycin solution, 10% of calf serum (Merck) and antimycotic. […] The cultures were maintained at 37 °C and in a 5% CO2-enriched atmosphere.
A2780, A2780cisR and Balb/3T3 clone A31 cells were seeded in 96-well tissue culture polystyrene plates at a concentration of 3 × 10^3, 6 × 10^3 and 1 × 10^3 cells per well, respectively. After overnight incubation, the cells were treated with different concentrations (0–100 µM) of the selected compounds for 72 h at 37 °C in a 5% atmosphere of CO2. Stock solutions of compounds were prepared in DMSO and sequentially diluted in medium (final DMSO concentration of 0.5%). […] At the end of the incubation time, cell viability was assessed by means of WST-1 tetrazolium salt reagent (Roche). Briefly, cells were incubated for 4 h with the tetrazolium salt reagent diluted 1:10, at 37 °C and 5% CO2. Measurements of formazan dye absorbance, which directly correlates with the number of viable cells, were carried out with a micro-plate reader (Biorad) at 450 nm, using 655 nm as reference wavelength. The 50% inhibitory concentration (IC50) refers to compound concentration at which 50% of cell death is observed with respect to the control. For each tested compound, assay was performed on triplicate. The concentration effect curves were generated by nonlinear regression curves (GraphPad Prism Software, 2021) and the data reported as mean ± standard deviation.

[2] = Solubility in D2O by 1H NMR (Me2SO2 internal standard); type: physicochemical; settings: for Solubility: 21 °C
Experimental: (§1) • (a) Solubility in D2O. A suspension of the selected diiron compound (3–5 mg) in a D2O solution (ca. 1 mL) containing Me2SO2 (3.36 × 10^−3 M) as internal standard was vigorously stirred at 21 °C for 1.5 h. The resulting saturated solution was filtered over celite, transferred into an NMR tube and then analyzed by ^1H NMR spectroscopy (delay time = 3 s; number of scans = 20). The concentration (solubility) was calculated by the relative integral (related to Cp and/or NMe signals) with respect to Me2SO2 (δ = 3.14 ppm). • (b) Stability in DMSO-d6/D2O solution. The selected diiron compound (ca. 4 mg) was added of 1 mL of D2O (3a,c) or DMSO-d6/D2O (2:1 v/v) mixture (2a,c, 3b, 4a–c, 5a–c, 6a–c, 7), containing Me2SO2 (3.36 × 10^−3 M). The resulting mixture was stirred for 30 min and then filtered over celite; the filtrated solution was transferred into an NMR tube. The sample was analyzed by ^1H NMR (time = 0) and then heated at 37 °C for 72 h. After cooling to room temperature, the solution was separated from a small amount of solid by filtration over celite, and the new ^1H NMR spectrum was recorded (delay time = 3 s; number of scans = 20). In every case, no newly formed organometallic species was detected. The amount of starting material in solution (% with respect to the initial spectrum) was calculated by the relative integral (vs. Cp and/or NMe signals) with respect to Me2SO2 as internal standard.

[3] = Stability in DMSO-d6/D2O or D2O solution at 37 °C for 72 h (1H NMR); type: physicochemical; settings: DMSO-d6/D2O (2:1 v/v), 72 h at 37 °C
Experimental: as §1

cytochrome c (Cyt c) = target: T1, cytochrome c (Cyt c) (Equus caballus, UniProt P00004); assay: ESI-MS interaction with cytochrome c; type: binding; settings: 24 h at 37 °C, protein-to-metal ratio 1:2, pH 6.8
T1 construct: purchased
T1 sequence (P00004 whole entry): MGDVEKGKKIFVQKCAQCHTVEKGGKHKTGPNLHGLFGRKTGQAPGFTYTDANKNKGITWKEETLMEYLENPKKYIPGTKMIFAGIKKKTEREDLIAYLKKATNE
Experimental: • (a) Sample preparation. Cytochrome c (Cyt c) was commercially available and used as received; the TrxR dodecapeptide (TrxR-pept) was synthesized as reported in the literature. The stock solutions of the selected iron-based complexes were prepared in DMSO up to a final concentration of 10^−2 M. The stock solution of TrxR-pept was prepared in LC-MS grade water by dissolving the required amount of lyophilized peptide to reach a final concentration of 10^−3 M. The stock solution of Cyt c 10^−3 M was prepared by dissolving the required amount of protein in 2 mM ammonium acetate solution at pH 6.8. In the interaction tests with TrxR-pept, opportune aliquots of each complex and TrxR-pept stock solutions were mixed and diluted with LC-MS grade water to 10^−4 M final concentration and a TrxR-pept/complex ratio of 1:1. For each iron-based complex/Cyt c pair, appropriate aliquots of the respective stock solutions were mixed and subsequently diluted with 2 mM ammonium acetate solution (pH 6.8) to a final protein concentration of 10^−4 M and a protein-to-metal molar ratio of 1:2. All the sample mixtures were incubated for 24 h at 37 °C. Subsequently, opportune dilutions were performed as detailed: • – the TrxR-pept containing solutions were further diluted with LC-MS grade water to a final TrxR-pept concentration of 10^−5 M and added with 0.1% v/v of formic acid just before infusion in the mass spectrometer; • – the protein-containing solutions were diluted with 2 mM ammonium acetate solution (pH 6.8) to a final protein concentration of 10^−6 M and added with 0.1% v/v of formic acid just before infusion. • (b) ESI-MS instrumental parameters. The ESI mass spectra were acquired using a TripleTOF® 5600^+ high-resolution mass spectrometer (Sciex, Framingham, MA, USA), with a DuoSpray® interface operating with an ESI probe. Respective ESI mass spectra were acquired through direct infusion at 7 μL min^−1 flow rate. The ESI source parameters were optimized for each biomolecule and were as follows: for TrxR dodecapeptide positive polarity, ionspray voltage floating 5500 V, temperature 0, ion source gas 1 (GS1) 35 L min^−1; ion source gas 2 (GS2) 0; curtain gas (CUR) 20 L min^−1, declustering potential (DP) 300 V, collision energy (CE) 10 V, range 1070–1600 m/z; for Cyt c positive polarity, ionspray voltage floating 5500 V, temperature 0, ion source gas 1 (GS1) 35 L min^−1; ion source gas 2 (GS2) 0; curtain gas (CUR) 20 L min^−1, declustering potential (DP) 180 V, collision energy (CE) 10 V, range 500–1800 m/z. For acquisition, Analyst TF software 1.7.1 (Sciex, Framingham, MA, USA) was used and deconvoluted spectra were obtained by using the Bio Tool Kit micro-application v.2.2 embedded in PeakView^TM software v.2.2 (Sciex, Framingham, MA, USA).

Substance	IC50 [1] [µM]	Solubility in D2O (in words) [2]	Stability % (residual % of starting material) [3] [%]	Interaction with Cyt c (ESI-MS) (cytochrome c (Cyt c))	Solubility [2]
[Fe2Cp2(CO)(μ-CO){μ-η^1:η^3-C^3(Me)C^2(Me)C^1N(CH2Ph)2}]CF3SO3 [Compound 2c]	18 ± 3	almost insoluble in D2O	87	substantial chemical inertness	
[Fe2Cp2(CO)(μ-CO){μ-η^1:η^3-C^3(Me)C^2(Me)C^1NMe(2-naphthyl)}]CF3SO3 [Compound 7]	48 ± 3	almost insoluble in D2O	66	substantial chemical inertness	
[Fe2Cp2(CO)(μ-CO){μ-η^1:η^3-C^3(Me)C^2(Me)C^1NMe(4-C6H4OMe)}]CF3SO3 [Compound 6c]	> 100		86	substantial chemical inertness	1.06 × 10^−3 mol·L^−1 and 0.69 g·L^−1
[Fe2Cp2(CO)(μ-CO){μ-η^1:η^3-C^3(Me)C^2(Me)C^1NMe(CH2Ph)}]CF3SO3 [Compound 5b]	> 100		90	substantial chemical inertness	1.52 × 10^−3 mol·L^−1 and 0.96 g·L^−1
[Fe2Cp2(CO)(μ-CO){μ-η^1:η^3-C^3(Me)C^2(Me)C^1NMe(Cy)}]CF3SO3 [Compound 4c]	94 ± 16		95	substantial chemical inertness	2.63 × 10^−3 mol·L^−1 and 1.64 g·L^−1
[Fe2Cp2(CO)(μ-CO){μ-η^1:η^3-C^3(Me)C^2HC^1NMe(Cy)}]CF3SO3 [Compound 4a]	> 100		95	substantial chemical inertness	3.49 × 10^−3 mol·L^−1 and 2.13 g·L^−1
[Fe2Cp2(CO)(μ-CO){μ-η^1:η^3-C^3(Ph)C^2HC^1NMe(4-C6H4OMe)}]CF3SO3 [Compound 6b]	39 ± 3		76	substantial chemical inertness	
[Fe2Cp2(CO)(μ-CO){μ-η^1:η^3-C^3(Ph)C^2HC^1NMe(CH2CH = CH2)}]CF3SO3 [Compound 3b]	> 100		68	substantial chemical inertness	2.34 × 10^−3 mol·L^−1 and 1.48 g·L^−1
